Assay results published in patent publication US20040005352A1, “Biologically functionalized porous microspheres” (priority 2002, published 2004).

Tests used:
[1] = tested on: lipid bilayer of membrane-enclosed microspheres; format: biochemical; conditions: pH 7.4
bacteriorhodopsin (BR) = target: T1, bacteriorhodopsin (BR) (Halobacterium salinarum, UniProt P02945); assay: FITC response to illumination of bacteriorhodopsin in the microsphere membrane (flow cytometry); conditions: for Activity of BR within the microsphere (proton pumping): BR in lipid bilayer on mesoporous microspheres, illumination
T1 sequence (P02945 14-262): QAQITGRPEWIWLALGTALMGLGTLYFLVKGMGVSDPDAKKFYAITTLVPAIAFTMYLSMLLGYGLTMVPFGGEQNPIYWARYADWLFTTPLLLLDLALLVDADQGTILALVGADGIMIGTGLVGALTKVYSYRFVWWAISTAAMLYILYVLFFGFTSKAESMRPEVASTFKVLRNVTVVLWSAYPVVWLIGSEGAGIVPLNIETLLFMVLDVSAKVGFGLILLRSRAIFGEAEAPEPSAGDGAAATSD
Text: The next investigation was to determine whether a integral membrane protein, bacteriorhodopsin (BR) retained its activity and effect a change on the contents of the microporous microsphere. The natural activity of bacteriorhodpsin is to increase the proton concentration (i.e. pH) upon illumination with the appropriate wavelength of light (ca 510 nm).
The microspheres were then enveloped with liposomes containing 0.1-5% reconstituted bacteriorhodpsin-containing “purple membrane” from Halobacterium salinarum, in egg phosphatidyl choline.

Human DAT protein = Human DAT protein (Homo sapiens, UniProt Q01959); conditions: anticipated; [3H]DA uptake, 3 min at 34° C.
Sequence of Human DAT protein (Q01959 whole entry): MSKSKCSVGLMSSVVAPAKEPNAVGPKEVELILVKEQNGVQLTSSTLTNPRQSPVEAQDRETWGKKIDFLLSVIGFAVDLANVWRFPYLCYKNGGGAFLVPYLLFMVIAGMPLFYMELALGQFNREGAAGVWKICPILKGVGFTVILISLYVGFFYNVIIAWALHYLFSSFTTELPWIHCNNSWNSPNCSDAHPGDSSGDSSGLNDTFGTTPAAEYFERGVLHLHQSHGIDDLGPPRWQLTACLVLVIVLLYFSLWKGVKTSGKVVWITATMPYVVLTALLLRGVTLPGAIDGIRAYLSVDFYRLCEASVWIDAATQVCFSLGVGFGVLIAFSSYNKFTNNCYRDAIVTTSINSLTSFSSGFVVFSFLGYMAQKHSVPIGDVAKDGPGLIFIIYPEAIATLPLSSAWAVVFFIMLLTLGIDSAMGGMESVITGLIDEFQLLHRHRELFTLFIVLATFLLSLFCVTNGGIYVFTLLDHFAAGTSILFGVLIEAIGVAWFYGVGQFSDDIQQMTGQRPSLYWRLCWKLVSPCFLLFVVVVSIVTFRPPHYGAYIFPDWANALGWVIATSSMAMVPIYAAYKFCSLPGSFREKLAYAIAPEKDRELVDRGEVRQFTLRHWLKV

Molecule: α-hemolysin
- Change in Mag-Fluo-4 fluorescence intensity (mean channel fluorescence) [1]: increase in fluorescence intensity

Molecule: O=[N+]([O-])[O-].O=[N+]([O-])[O-].O=[N+]([O-])[O-].[Gd+3] [Gd(NO3)3, reference compound]
- Effect on BR (bacteriorhodopsin (BR); 3 μM Gd(NO3)3): inhibitor of BR

Molecule: NCCc1ccc(O)c(O)c1 [dopamine]
- Vmax (Human DAT protein): 9.0 pmol/10^5 cells/min

B1: BR: integral membrane protein, light driven proton pump; purple membrane from Halobacterium salinarum (protein, UniProt P02945 14-262, looked up)
Bacteriorhodopsin: T1 sequence (P02945 14-262)
- FITC intensity after several minutes of illumination (bacteriorhodopsin (BR); 0.1-5% BR purple membrane in egg phosphatidyl choline, white light): decreased
- Activity of BR within the microsphere (proton pumping) (bacteriorhodopsin (BR)): active
- Activity of BR within the microsphere (proton pumping) (bacteriorhodopsin (BR); listed as bacteriorhodopsin): photo-induced proton pumping
